Test results reported in ChEMBL document CHEMBL1201862, “PubChem BioAssay data set” (2004).
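Protocol summary: plate cells (96-well), add compound at 5 concentrations, incubate 48 h, interpolate endpoints linearly. Here, GI50 denotes the concentration required for 50% inhibition of growth.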 Activity calls are given as the source filed them. Rule as the data show it: active = GI50 up to about 1.1 µM and inactive = higher. Where a SMILES comes first, the peptide text is derived from it. Bridges are numbered along the chain shown (N, C = ends). [ ]: non-standard residue; d: D form. The star is where a group is joined. ξ: configuration not given here. PhAc = O=C(Cc1ccccc1)*; ξP = O=C(O)C1CCCN1

Tests used:
Experiment in all cases: NCI tumour cell line growth inhibition, 48 h
DU-145 = system: DU-145
OVCAR-3 = system: OVCAR-3
LOX IMVI = system: LOX IMVI
OVCAR-5 = system: OVCAR-5
UACC-257 = system: UACC-257
MDA-MB-231 = system: MDA-MB-231
SF-539 = system: SF-539
HT-29 = system: HT-29
SNB-75 = system: SNB-75
NCI-H23 = system: NCI-H23
HL-60 = system: HL-60
RXF 393 = system: RXF 393
K562 = system: K562
SF-295 = system: SF-295
OVCAR-8 = system: OVCAR-8
NCI-H226 = system: NCI-H226
A549 = system: A549
SK-MEL-28 = system: SK-MEL-28
CCRF-CEM = system: CCRF-CEM
MDA-MB-435 = system: MDA-MB-435

Measured: GI50

O=C(Nc1ccc(Cl)cc1)c1cc(S(=O)(=O)NC2=Nc3ccc(Cl)cc3C(c3ccccc3)N2)c(SSc2cc(Cl)c(C(=O)Nc3ccc(Cl)cc3)cc2S(=O)(=O)NC2=Nc3ccc(Cl)cc3C(c3ccccc3)N2)cc1Cl (configuration not stated)
inactive: DU-145 > 100 µM | OVCAR-3 > 100 µM | LOX IMVI > 100 µM | OVCAR-5 83.4 µM | UACC-257 > 100 µM | MDA-MB-231 24.3 µM | SF-539 > 100 µM | HT-29 > 100 µM | SNB-75 > 100 µM | NCI-H23 > 100 µM | HL-60 3.37 µM | RXF 393 > 100 µM | K562 46.8 µM | SF-295 > 100 µM | OVCAR-8 > 100 µM | NCI-H226 > 100 µM | A549 > 100 µM | SK-MEL-28 > 100 µM | CCRF-CEM 17.1 µM | MDA-MB-435 > 100 µM

COc1cc(-c2cc(=O)c3cc4c(=O)cc(-c5cc(OC)c(OC)c(OC)c5)oc4cc3o2)cc(OC)c1OC
inactive: DU-145 35.7 µM | OVCAR-3 > 87.1 µM | LOX IMVI 36.1 µM | OVCAR-5 > 100 µM | UACC-257 > 83.6 µM | MDA-MB-231 > 39 µM | SF-539 58.3 µM | HT-29 > 100 µM | SNB-75 13.5 µM | NCI-H23 25.8 µM | HL-60 > 100 µM | RXF 393 7.98 µM | K562 > 41.9 µM | SF-295 17.5 µM | OVCAR-8 27 µM | NCI-H226 12.9 µM | A549 88.9 µM | SK-MEL-28 > 100 µM | CCRF-CEM > 100 µM | MDA-MB-435 > 100 µM

C[C@]12C=CC(=O)C=C1CC[C@@H]1[C@@H]2CC[C@@]2(C)[C@H]1CC[C@]2(O)C(N)=O
inactive: DU-145 > 100 µM | OVCAR-3 > 100 µM | LOX IMVI > 100 µM | OVCAR-5 > 100 µM | UACC-257 50.8 µM | MDA-MB-231 > 100 µM | SF-539 > 100 µM | HT-29 > 100 µM | SNB-75 > 100 µM | NCI-H23 > 100 µM | HL-60 > 100 µM | RXF 393 > 100 µM | K562 > 100 µM | SF-295 > 100 µM | OVCAR-8 > 100 µM | NCI-H226 > 100 µM | A549 > 100 µM | SK-MEL-28 > 100 µM | CCRF-CEM > 100 µM | MDA-MB-435 > 100 µM

Cc1ccc(/N=N/c2c(C)nn(C(=O)CC(=O)Nc3ccc(Cl)cc3)c2C)cc1C
inactive: DU-145 > 100 µM | OVCAR-3 > 100 µM | LOX IMVI 96.8 µM | OVCAR-5 98.2 µM | UACC-257 > 100 µM | MDA-MB-231 24.3 µM | SF-539 26 µM | HT-29 > 100 µM | SNB-75 21 µM | NCI-H23 > 100 µM | HL-60 24.4 µM | RXF 393 20.7 µM | SF-295 48.3 µM | OVCAR-8 32.9 µM | NCI-H226 > 100 µM | A549 > 100 µM | SK-MEL-28 > 100 µM | CCRF-CEM 29.1 µM | MDA-MB-435 > 100 µM

O=[N+]([O-])c1cccc2nc3ccccc3c(NCCO)c12
active: DU-145 0.0036 µM | OVCAR-3 0.000486 µM | LOX IMVI 0.00418 µM | OVCAR-5 0.00219 µM | UACC-257 0.00421 µM | MDA-MB-231 0.00215 µM | SF-539 0.00262 µM | HT-29 0.000108 µM | SNB-75 0.00164 µM | NCI-H23 0.00194 µM | HL-60 0.00325 µM | RXF 393 0.00169 µM | K562 0.000237 µM | SF-295 0.00467 µM | NCI-H226 0.00248 µM | A549 0.0034 µM | SK-MEL-28 0.00217 µM | CCRF-CEM 0.00989 µM | MDA-MB-435 0.00179 µM

N#Cc1c(O)c(/N=N/c2ccc(Cl)cc2)c(=O)n2c1[nH]c1ccccc12
inactive: DU-145 38.5 µM | OVCAR-3 26.4 µM | LOX IMVI > 100 µM | OVCAR-5 62.2 µM | UACC-257 52.1 µM | MDA-MB-231 29.3 µM | SF-539 53.8 µM | HT-29 35.8 µM | SNB-75 37.7 µM | NCI-H23 46 µM | HL-60 55.5 µM | RXF 393 53.8 µM | K562 32.6 µM | SF-295 36.9 µM | OVCAR-8 37.8 µM | NCI-H226 81.8 µM | A549 44.9 µM | SK-MEL-28 45.2 µM | CCRF-CEM 31.2 µM | MDA-MB-435 35.8 µM

CSc1nc2c3ccccc3ccn2c1C(=O)N/N=C/c1ccccc1
inactive: DU-145 > 74.6 µM | OVCAR-3 17.9 µM | LOX IMVI > 100 µM | OVCAR-5 > 75.5 µM | UACC-257 > 100 µM | MDA-MB-231 18.1 µM | SF-539 1.43 µM | HT-29 > 100 µM | SNB-75 > 42.7 µM | NCI-H23 30.2 µM | HL-60 > 100 µM | RXF 393 32 µM | K562 > 100 µM | SF-295 24 µM | OVCAR-8 18.5 µM | NCI-H226 36 µM | A549 56.9 µM | SK-MEL-28 > 100 µM | CCRF-CEM > 100 µM | MDA-MB-435 > 100 µM

O=C(CCSC1=NCCCN1)c1ccc(F)cc1
inactive: DU-145 17.4 µM | OVCAR-3 22.9 µM | LOX IMVI 18.9 µM | OVCAR-5 15 µM | UACC-257 18.8 µM | MDA-MB-231 21.5 µM | SF-539 15.7 µM | HT-29 20.2 µM | SNB-75 19 µM | NCI-H23 19.4 µM | HL-60 10.7 µM | RXF 393 17.2 µM | K562 3.13 µM | SF-295 37.8 µM | OVCAR-8 31.9 µM | NCI-H226 17.4 µM | A549 20.4 µM | SK-MEL-28 18.7 µM | CCRF-CEM 2.61 µM | MDA-MB-435 18.5 µM

O=C(Cc1ccccc1)N[C@@H]1COC(=O)C2CCCN2C(=O)[C@@H]2CCCN2C1=O (some centres not stated) (PhAc-[dS]-Pro-[ξP]; ester 1-C)
active: SNB-75 < 0.01 µM
inactive: DU-145 > 100 µM | OVCAR-3 > 100 µM | LOX IMVI > 100 µM | OVCAR-5 > 100 µM | UACC-257 > 100 µM | MDA-MB-231 > 100 µM | SF-539 > 100 µM | HT-29 > 100 µM | NCI-H23 > 100 µM | HL-60 > 100 µM | RXF 393 > 100 µM | SF-295 > 100 µM | OVCAR-8 > 100 µM | NCI-H226 > 100 µM | A549 > 100 µM | SK-MEL-28 > 100 µM | CCRF-CEM > 100 µM | MDA-MB-435 > 100 µM

O=C(CCc1ccc(O)c(O)c1)NCCc1ccc(O)c(O)c1
inactive: DU-145 > 100 µM | OVCAR-3 94.2 µM | LOX IMVI 39.7 µM | OVCAR-5 > 100 µM | UACC-257 > 100 µM | MDA-MB-231 25.6 µM | SF-539 > 100 µM | HT-29 > 100 µM | SNB-75 > 100 µM | NCI-H23 > 100 µM | HL-60 26.8 µM | RXF 393 > 100 µM | K562 31.7 µM | SF-295 > 100 µM | OVCAR-8 18.3 µM | NCI-H226 > 100 µM | A549 > 100 µM | SK-MEL-28 > 100 µM | CCRF-CEM 27.9 µM | MDA-MB-435 17.9 µM

O=C(O)CC(Nc1ccccc1)C(=O)O (configuration not stated)
inactive: DU-145 > 100 µM | OVCAR-3 > 100 µM | LOX IMVI > 100 µM | OVCAR-5 > 100 µM | UACC-257 > 100 µM | MDA-MB-231 > 100 µM | SF-539 > 100 µM | HT-29 > 100 µM | SNB-75 > 100 µM | NCI-H23 > 100 µM | HL-60 > 100 µM | RXF 393 > 100 µM | K562 > 100 µM | SF-295 > 100 µM | OVCAR-8 > 100 µM | NCI-H226 > 100 µM | A549 > 100 µM | SK-MEL-28 > 100 µM | CCRF-CEM > 100 µM | MDA-MB-435 > 100 µM

COc1cc(C2c3[nH]c4ccccc4c3C[C@H]3COC(=O)N23)cc(OC)c1OC (some centres not stated)
active: DU-145 0.0879 µM | OVCAR-3 0.0307 µM | LOX IMVI 0.0336 µM | OVCAR-5 0.112 µM | UACC-257 0.0321 µM | MDA-MB-231 0.815 µM | SF-539 0.035 µM | HT-29 0.097 µM | SNB-75 0.0923 µM | NCI-H23 0.0776 µM | HL-60 0.0336 µM | RXF 393 < 0.01 µM | K562 0.0349 µM | SF-295 0.0262 µM | OVCAR-8 0.178 µM | NCI-H226 0.0574 µM | A549 0.101 µM | SK-MEL-28 0.0796 µM | CCRF-CEM 0.0406 µM | MDA-MB-435 0.0213 µM

NNC(=O)c1c(Cl)c(Cl)c(Cl)c(Cl)c1-c1nc2ccccc2[nH]1
inactive: DU-145 13.2 µM | OVCAR-3 6.64 µM | LOX IMVI 12.7 µM | OVCAR-5 36.7 µM | UACC-257 12.6 µM | MDA-MB-231 21.3 µM | SF-539 20.4 µM | HT-29 14.8 µM | SNB-75 12.5 µM | NCI-H23 15.6 µM | HL-60 4.7 µM | RXF 393 3.49 µM | K562 3.25 µM | SF-295 4.91 µM | OVCAR-8 29 µM | NCI-H226 16.8 µM | A549 10 µM | SK-MEL-28 15.8 µM | CCRF-CEM 12.5 µM | MDA-MB-435 2.12 µM

C[C@]12CCC(O)CC1=CC[C@@H]1[C@@H]2CC[C@]2(C)C(O)[C@H](n3ccnc3)C[C@@H]12 (some centres not stated)
inactive: DU-145 > 100 µM | OVCAR-3 72.4 µM | LOX IMVI 39.2 µM | OVCAR-5 > 100 µM | UACC-257 28.2 µM | MDA-MB-231 > 100 µM | SF-539 64.1 µM | HT-29 8.17 µM | SNB-75 > 100 µM | NCI-H23 19.5 µM | HL-60 11.1 µM | RXF 393 55.1 µM | K562 12 µM | SF-295 52 µM | OVCAR-8 > 100 µM | NCI-H226 > 100 µM | A549 81.7 µM | SK-MEL-28 > 100 µM | CCRF-CEM 17.9 µM | MDA-MB-435 75 µM
